Data taken from article PMC2713365 (International journal for parasitology, 2009).

Tests used:
[1] = molecular target: T1, AsGAR-1 (Ascaris suum, UniProt C0KJK1); assay: cell-based; settings: read-out: yeast functional expression, growth reporter, agonist at 10^-4 M
[2] = molecular target: T1, AsGAR-1; assay: yeast functional expression, antagonism of […] ACh by […] compound; type: cell-based; settings: read-out: % inhibition at 10^-4 M
[3] = molecular target: T1, AsGAR-1; assay: as above; type: cell-based; settings: read-out: % of control growth at 10^-4 M

Row | Compound | fold induction at 100 µM [1] | remaining activity at 100 µM [3] [%] | other results
1 | COC(=O)C1=CCCN(C)C1 [Arec, arecoline] | 10.2 ± 1.6 |  | 
2 | CN1[C@@H]2CC[C@H]1C[C@@H](OC(=O)C(CO)c1ccccc1)C2 (some centres unmarked) [Atr, atropine] |  |  | inhibition at 100 µM [2]: 62.2%
3 | CC(C[N+](C)(C)C)OC(N)=O (centres unmarked) [Beth, bethanechol] | 7.7 ± 0.8 |  | 
4 | C[N+](C)(C)CCOC(N)=O [Carb, carbachol] | 10.8 ± 1.7 |  | 
5 | CN1CCN2c3ccccc3Cc3ccccc3C2C1 (centres unmarked) [Mian, mianserin] |  | 24 ± 0.1 | 
6 | C[N+](C)(C)CC#CCN1CCCC1=O [Oxo, oxotremorine M] | 8.2 ± 1.7 |  | 
7 | CC(C)NCC(O)COc1cccc2ccccc12 (centres unmarked) [Prop, propranolol] |  | 41.2 ± 8.9 | 
8 | O=C(CCCN1CCC2(CC1)C(=O)NCN2c1ccccc1)c1ccc(F)cc1 [Spip, spiperone] |  | 52.8 ± 7.6 | 
